Experimental data: ChEMBL document CHEMBL3137667, “[Drug-induced liver injury; fourteenth updated edition of the bibliographic database of liver injuries and related drugs]” (Gastroenterol Clin Biol, 2004)

Key:
[1] = human
[2] = human; remark: listed apart in the source
[3] = Highest frequency of moderate liver toxicity observed during clinical trials, expressed as a percentage. [column '% BIOL' in source]; conditions: human
[4] = human; remark: listed apart in the source
[5] = human; remark: listed apart in the source
[6] = human; remark: listed apart in the source
[7] = Highest frequency of acute liver toxicity observed during clinical trials, expressed as a percentage. [column '% AIGUE' in source]; conditions: human
[8] = human; remark: listed apart in the source
[9] = human, serum
[10] = human; remark: listed apart in the source
[11] = Times to onset, minimal and maximal, observed in the indexed observations. [column 'DELAI' in source]; conditions: human
[12] = human; remark: listed apart in the source
[13] = human; remark: listed apart in the source
[14] = human, serum, 4383 h
[15] = human, serum; remark: listed apart in the source
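Throughout, for Hepatotoxicity (association with vascular disease): count of indexed literature references reporting vascular liver injury in humans, e.g. peliosis hepatitis, hepatic veno-occlusive disease or Budd-Chiari syndrome.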
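Throughout, for Hepatotoxicity (benign tumour): value is a count of indexed literature references citing a benign tumour confirmed by histopathology.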
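Throughout, for Hepatotoxicity (choleostasis): human cholestatic liver injury, shown by histopathology or by peak ALT or AST elevation over alkaline phosphatase ratio below 2, value counts indexed literature reports.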
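Throughout, for Hepatotoxicity (chronic liver disease): chronic liver injury confirmed by histopathology or persistently raised serum aminotransferase activity beyond 6 months, value given as the count of indexed literature references.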
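Throughout, for Hepatotoxicity (cirrhosis): value is a count of indexed literature references reporting cirrhosis confirmed by histopathology.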
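Throughout, for Hepatotoxicity (cytolytic): human cytolytic liver injury, shown by histopathology or by a ratio above 5 of peak ALT or AST elevation to alkaline phosphatase elevation, value counts indexed references.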
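Throughout, for Hepatotoxicity (granulomatous hepatitis): value is a count of indexed literature references reporting granulomatous liver disease confirmed by histopathology.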
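Throughout, for Hepatotoxicity (malignant tumour): malignant tumour confirmed by histopathology, value gives the count of indexed literature references reporting it.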
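Throughout, for Hepatotoxicity (severe hepatitis): human clinical data: severe hepatitis, meaning potentially life-threatening liver failure or clinically observed cases, the value counts how many indexed literature references report it.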
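Throughout, for Hepatotoxicity (steatosis): steatosis confirmed by histopathology, value is the count of indexed references.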

Compound: CC(C)(S)C(=O)N[C@@H](CS)C(=O)O [BUCILLAMINE]
- Hepatotoxicity (severe hepatitis) [1]: 0
- Hepatotoxicity (benign tumour) [2]: 0
- Hepatotoxicity (moderate) [3]: 9.4%
- Hepatotoxicity (cytolytic) [4]: 0
- Hepatotoxicity (granulomatous hepatitis) [5]: 0
- Hepatotoxicity (choleostasis) [6]: 0
- Hepatotoxicity (acute) [7]: 0%
- Hepatotoxicity (steatosis) [8]: 0
- Hepatotoxicity (moderate) [9]: 5
- Hepatotoxicity (cirrhosis) [10]: 0
- Hepatotoxicity (time to onset) [11]: 2 weeks
- Hepatotoxicity (malignant tumour) [12]: 0
- Hepatotoxicity (association with vascular disease) [13]: 0
- Hepatotoxicity (chronic liver disease) [14]: 0
- Hepatotoxicity (acute) [15]: 0

Compound: CCCC1O[C@@H]2C[C@H]3[C@@H]4CCC5=CC(=O)C=C[C@]5(C)[C@H]4[C@@H](O)C[C@]3(C)[C@]2(C(=O)CO)O1 (stereo not given in full) [BUDESONIDE]
- Hepatotoxicity (severe hepatitis) [1]: 0
- Hepatotoxicity (benign tumour) [2]: 0
- Hepatotoxicity (moderate) [3]: 0%
- Hepatotoxicity (cytolytic) [4]: 1
- Hepatotoxicity (granulomatous hepatitis) [5]: 0
- Hepatotoxicity (choleostasis) [6]: 0
- Hepatotoxicity (acute) [7]: 0%
- Hepatotoxicity (steatosis) [8]: 0
- Hepatotoxicity (moderate) [9]: 0
- Hepatotoxicity (cirrhosis) [10]: 0
- Hepatotoxicity (time to onset) [11]: 19 days
- Hepatotoxicity (malignant tumour) [12]: 0
- Hepatotoxicity (association with vascular disease) [13]: 0
- Hepatotoxicity (chronic liver disease) [14]: 0
- Hepatotoxicity (acute) [15]: 1

Compound: CCCCNc1cc(C(=O)O)cc(S(N)(=O)=O)c1Oc1ccccc1 [BUMETANIDE]
- Hepatotoxicity (severe hepatitis) ([1]; Liver): 0
- Hepatotoxicity (benign tumour) [2]: 0
- Hepatotoxicity (moderate) ([3]; Liver): 1.1%
- Hepatotoxicity (cytolytic) [4]: 0
- Hepatotoxicity (granulomatous hepatitis) [5]: 0
- Hepatotoxicity (choleostasis) [6]: 0
- Hepatotoxicity (acute) ([7]; Liver): 0%
- Hepatotoxicity (steatosis) [8]: 0
- Hepatotoxicity (moderate) [9]: 3
- Hepatotoxicity (cirrhosis) [10]: 0
- Hepatotoxicity (time to onset) [11]: 2 weeks - 6 months
- Hepatotoxicity (malignant tumour) [12]: 0
- Hepatotoxicity (association with vascular disease) [13]: 0
- Hepatotoxicity (chronic liver disease) [14]: 0
- Hepatotoxicity (acute) [15]: 0

Compound: O=C1CC2(CCCC2)CC(=O)N1CCCCN1CCN(c2ncccn2)CC1 [BUSPIRONE]
- Hepatotoxicity (severe hepatitis) [1]: 0
- Hepatotoxicity (benign tumour) [2]: 0
- Hepatotoxicity (moderate) [3]: 5.3%
- Hepatotoxicity (cytolytic) [4]: 1
- Hepatotoxicity (granulomatous hepatitis) [5]: 0
- Hepatotoxicity (choleostasis) [6]: 1
- Hepatotoxicity (acute) [7]: 0%
- Hepatotoxicity (steatosis) [8]: 0
- Hepatotoxicity (moderate) [9]: 2
- Hepatotoxicity (cirrhosis) [10]: 0
- Hepatotoxicity (time to onset) [11]: 26 days
- Hepatotoxicity (malignant tumour) [12]: 0
- Hepatotoxicity (association with vascular disease) [13]: 0
- Hepatotoxicity (chronic liver disease) [14]: 0
- Hepatotoxicity (acute) [15]: 1

Compound: C=CCC1(CC(C)C)C(=O)NC(=O)NC1=O [BUTALBITAL]
- Hepatotoxicity (severe hepatitis) [1]: 0
- Hepatotoxicity (benign tumour) [2]: 0
- Hepatotoxicity (moderate) [3]: 0%
- Hepatotoxicity (cytolytic) [4]: 1
- Hepatotoxicity (granulomatous hepatitis) [5]: 0
- Hepatotoxicity (choleostasis) [6]: 0
- Hepatotoxicity (acute) [7]: 0%
- Hepatotoxicity (steatosis) [8]: 0
- Hepatotoxicity (moderate) [9]: 0
- Hepatotoxicity (cirrhosis) [10]: 0
- Hepatotoxicity (time to onset) [11]: 2.5 months
- Hepatotoxicity (malignant tumour) [12]: 0
- Hepatotoxicity (association with vascular disease) [13]: 0
- Hepatotoxicity (chronic liver disease) [14]: 0
- Hepatotoxicity (acute) [15]: 1

Compound: CN(C)C(=O)OC1N=C(c2ccccc2)c2cc(Cl)ccc2N(C)C1=O (stereo not given) [CAMAZEPAM]
- Hepatotoxicity (severe hepatitis) [1]: 0
- Hepatotoxicity (benign tumour) [2]: 0
- Hepatotoxicity (moderate) [3]: 0%
- Hepatotoxicity (cytolytic) [4]: 1
- Hepatotoxicity (granulomatous hepatitis) [5]: 0
- Hepatotoxicity (choleostasis) [6]: 0
- Hepatotoxicity (acute) [7]: 0%
- Hepatotoxicity (steatosis) [8]: 0
- Hepatotoxicity (moderate) [9]: 0
- Hepatotoxicity (cirrhosis) [10]: 0
- Hepatotoxicity (time to onset) [11]: 3 months
- Hepatotoxicity (malignant tumour) [12]: 0
- Hepatotoxicity (association with vascular disease) [13]: 0
- Hepatotoxicity (chronic liver disease) [14]: 0
- Hepatotoxicity (acute) [15]: 1

Compound: CCCC(C)(COC(N)=O)COC(=O)NC(C)C (stereo not given) [CARISOPRODOL]
- Hepatotoxicity (severe hepatitis) [1]: 0
- Hepatotoxicity (benign tumour) [2]: 0
- Hepatotoxicity (moderate) [3]: 0%
- Hepatotoxicity (cytolytic) [4]: 1
- Hepatotoxicity (granulomatous hepatitis) [5]: 0
- Hepatotoxicity (choleostasis) [6]: 0
- Hepatotoxicity (acute) [7]: 0%
- Hepatotoxicity (steatosis) [8]: 0
- Hepatotoxicity (moderate) [9]: 0
- Hepatotoxicity (cirrhosis) [10]: 0
- Hepatotoxicity (time to onset) [11]: 2 weeks
- Hepatotoxicity (malignant tumour) [12]: 0
- Hepatotoxicity (association with vascular disease) [13]: 0
- Hepatotoxicity (chronic liver disease) [14]: 0
- Hepatotoxicity (acute) [15]: 1
